Counter-ions that a name gives are not always drawn.
Legend:
[1] = tested on: alternative splicing of NCR3 gene (NKp30 SHORT, INTER, LONG isoforms) in YTS cells; assay: Modulation of alternative splicing of NCR3 gene in YTS cells (RT-PCR of NKp30 isoform proportions); type: cell-based, human; settings: 100 nM, 45 h at 37° C., FIG. 14A
Protocol: (§1) FIG. 14. Modulation of alternative splicing of NCR3 gene with histone deacetylase inhibitors and DNA methyltransferase inhibitors (part A of experimental section)
(§2) NKp30 isoform proportions are shown as the ratio of the sum of WT—(variable Ig-like) and DEL—(constant Ig-like) extracellular domain relative quantities of each isoform (SHORT-, INTER- and LONG-tail isoforms) and the total quantity of the six isoforms.
(A) YTS cells were seeded (5.10^5 NK/well) in 96 wells plates and incubated with trichostatine A (100 nM) (TSA) for 45 h at 37° C.
(§3) Total cellular RNA was isolated from PBMC and NK cell lines with the RNeasy kit (Qiagen). First strand cDNA was synthesized from 5 μg of total RNA using SuperScript™ II Reverse Transcriptase and random primers (Promega) according to Invitrogen's instructions.
(§4) Modulation of NCR3 Alternative Splicing by HDAC and Demethylating Agents.
YTS cells were seeded (5.10^5 NK/well) in 96 wells plates and incubated with trichostatine A (100 nM) for 45 h at 37° C.
(§5) Several approaches modulating alternative splicing may be used to operate a switch from NKp30 INTER^Low/SHORT^High/LONG^High (identified as profile B following the first results obtained in the present study (part A.)) towards NKp30 INTER^High/SHORT^Low/LONG^Low (identified as profile A following the first results obtained in the present study (part A.)). […]

[2] = tested on: alternative splicing of NCR3 gene (NKp30 SHORT, INTER, LONG isoforms) in NK92 cells; assay: Modulation of alternative splicing of NCR3 gene in NK92 cells (RT-PCR of NKp30 isoform proportions); type: cell-based, human; settings: 2 μM with IL-2 (50 UI/ml), 36 h at 37° C., FIG. 14B
Protocol: as §1, §2
(B) NK92 cells were seeded (5.10^5 NK/well) in 96 wells plates and incubated with 5-azacitidine (2 μM) (5AZA) and IL-2 (50 Ul/ml) for 36 h at 37° C.
as §3, §4
NK92 cells were seeded (5.10^5 NK/well) in 96 wells plates and incubated with 5-azacitidine (2 μM) and IL-2 (50 Ul/ml) for 36 h at 37° C.
as §5

[3] = tested on: wild-type NCR3 gene splicing (NKp30 isoforms); assay: Modulation of wild-type NCR3 gene splicing by antisense oligonucleotides; settings: SEQ ID NO: 49-51 used in combination; no experiment described
[4] = tested on: NKp30 transcriptional profile (PBMC of GIST patients); assay: NKp30 transcriptional profile stability in GIST patients during the course of imatinib mesylate treatment; type: in vivo, human; settings: GIST therapy, spanning several years in some cases, four patients, FIG. 4
Description: FIG. 4. Representation of NKp30 transcriptional profile intra-individual stability in four GIST patients during the course of treatment
NKP30 transcriptional profile. NKp30 isoform proportions are shown as the ratio of the relative quantities of each isoform and the total quantity of the six isoforms. For each patient, the numbers in brackets represent the time post-treatment in months.
as §3
For the “GIST patients and Healthy Volunteers” cohort, real time quantitative PCR amplifications were conducted using FastStart DNA Master SYBRGreen I Mix according to the manufacturer's instructions, with 0.3 μM primers, 2 mM MgCl2 and cDNAs, in a 20 μl final reaction volume. Thermocycling was performed using a LightCycler (Roche Molecular System) initiated by 10 min incubation at 95° C., followed by 38 cycles (95° C., 1 s; 65° C., 10 s; 72° C., 20 s). NKp30 mRNA expression level was normalized by dividing its relative mRNA amount with the corresponding GAPDH mRNA amount.

Molecule: CC(/C=C/C(=O)NO)=C\[C@@H](C)C(=O)c1ccc(N(C)C)cc1 [trichostatin A]
- Proportions of NKp30 INTER, SHORT and LONG isoforms [1]: significant over-representation of INTER isoforms associated with an under-representation of SHORT and LONG isoforms

Molecule: Nc1ncn([C@@H]2O[C@H](CO)[C@@H](O)[C@H]2O)c(=O)n1 [5-azacitidine]
- Proportions of NKp30 INTER, SHORT and LONG isoforms [2]: significant over-representation of INTER isoforms associated with an under-representation of SHORT and LONG isoforms

Molecule: antisense oligonucleotides corresponding to SEQ ID NO: 49-51: three antisense oligonucleotides used in combination: target polyadenylation signal 1, polyadenylation site 1, and INTER blocking (antisense 1 GGGGCAGATTTATTGGGGTC; antisense 2 CTCATGAGGAGTTAGTGGT; antisense 3 GTGACAGTGGCCTGGTCAGA; listed as DNA, chemistry not given here)
- Representation of NKp30 INTER, SHORT and LONG isoforms compared to reference or mean values [3]: significant (relative) under-representation of NKp30 INTER isoforms associated with a relative over-representation of NKp30 SHORT and LONG isoforms

Molecule: Cc1ccc(NC(=O)c2ccc(CN3CCN(C)CC3)cc2)cc1Nc1nccc(-c2cccnc2)n1 [imatinib mesylate]
- Modulation of the pattern of NKp30 expression overtime [4]: did not appear to modulate the pattern of NKp30 expression overtime
